Values of other authors, collected in EP1566168A1, “Dermo-cosmetic compositions for depigmenting and use of it” (priority 2004, dated 2005).

Experiments:
[1] = oil
[2] = tested on: peau; conditions: applied to the skin

CCCCCCCCCCCCCCCC(=O)OCc1cc(=O)c(OC(=O)CCCCCCCCCCCCCCC)co1 [acide dipalmitoylkojique, 2-palmitoyloxy 5-palmitoyloxy γ-pyrone]
solubilité [1]: soluble dans l'huile
propriétés irritantes [2]: dépourvu de propriétés irritantes
